The values below come from patent publication US20240400547A1, “2,6-PIPERIDINEDIONE COMPOUND AND APPLICATION THEREOF” (MEDSHINE DISCOVERY INC., priority 2021, published 2024).

Test [1] addresses T1, IRAK4 (Homo sapiens, UniProt Q9NWZ3).
T1 construct: expressed in transfected cells; host or cells: K562 IRAK4-HiBiT cells
T1 sequence (Q9NWZ3 1-460): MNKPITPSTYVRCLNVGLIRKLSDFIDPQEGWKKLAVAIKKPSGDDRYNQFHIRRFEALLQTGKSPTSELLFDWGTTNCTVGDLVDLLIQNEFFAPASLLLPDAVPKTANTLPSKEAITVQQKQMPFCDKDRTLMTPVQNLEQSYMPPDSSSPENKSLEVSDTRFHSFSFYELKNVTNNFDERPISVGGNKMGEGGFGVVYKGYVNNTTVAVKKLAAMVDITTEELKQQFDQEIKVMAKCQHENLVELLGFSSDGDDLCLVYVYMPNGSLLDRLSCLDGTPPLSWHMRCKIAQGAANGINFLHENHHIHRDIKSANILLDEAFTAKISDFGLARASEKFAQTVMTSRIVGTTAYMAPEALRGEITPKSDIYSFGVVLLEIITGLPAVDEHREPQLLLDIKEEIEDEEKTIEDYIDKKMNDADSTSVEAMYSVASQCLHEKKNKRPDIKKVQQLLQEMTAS
Kind of test: Target protein degradation in K562 IRAK4-HiBiT cells (Nano-Glo HiBiT). Format: cell-based. Particulars: 16 to 18 hours; for Dmax: read-out: Maximum degradation rate. As for the experimental part:
Experimental objective: The experiment aims to evaluate the degradation effect of the test compounds on the target protein IRAK4 in K562 IRAK4-HiBiT cells.
• Cells: K562 IRAK4-HiBiT cells • Culture medium: RPMI 1640+10% fetal bovine serum+2 mM glutamine+1 mM sodium pyruvate+penicillin/streptomycin. • Positive control: 1000 nM; negative control: 0.1% DMSO.
• (1). The powder of the compound to be tested was dissolved in DMSO to a storage concentration of 10 mM. A total of 9 μL of the 10 mM of the compound to be tested was manually pipetted into the 1st and 13th columns of the LDV plate using a pipettor; • (2). A volume of 6 μL of DMSO was added to columns 2-12 and 14-24 using a Multidrop Combi; • (3). A 3-fold dilution of the test compounds (3 μL+6 μL) was performed using Bravo, for columns 1-11 and 13-23; • (4). According to the plate layout, 25 nL of compound solution (columns 1-24 of the LDV plate) was transferred to the experimental plate using Echo; • (5) 25 nL of the 1 mM positive control solution was transferred to the assay plate as a 100% degradation control (i.e. LC, HPE), and 25 nL of DMSO was transferred to the assay plate as a 0% control (i.e. HC, ZPE).
• (1) The culture medium was discarded, and the cells were washed once with DPBS, digested with trypsin, counted, and prepared into a cell suspension of […]. • (2) Using the MultiDrop Combi at a medium speed, 25 μL/well of the cell suspension was added to the experimental plate containing the test compounds; • (3) The experimental plate containing cells was returned to the incubator and cultured for 16 to 18 hours at 37° C. and 5% CO2.
• (1). Using the MultiDrop Combi at a high speed, 25 μL/well of the assay reagent (NanoGlo lytic solution+substrate+LgBit protein) was added to the assay plate, followed by shaking for 10 minutes; • (2) The plate was centrifuged at 2000 rpm for 1 minute to remove any bubbles; • (3) Readings were obtained by using an Envision, US Luminescence reader.
To calculate the degradation rate (DR) of the test compounds, the following formula is used: IR (%)=(RLU vehicle control−RLU compound)/(RLU vehicle control−RLU positive control)×100%. The solvent control refers to the blank control. The degradation rates of compounds at different concentrations were calculated in Excel, and then XLFit software was used to plot inhibition curves and calculate relevant parameters, including minimum degradation rate, maximum degradation rate, and DC50.
On the technique in general: HiBiT is a short tag that completes a luciferase, so light tracks the accessible tagged protein.

Test [2] relates to SU-DHL-2. Kind of test: Antiproliferative effect in lymphoma cell line SU-DHL-2 (CellTiter-Glo). Format: cell-based, human. Particulars: SU-DHL-2, 4 days; for IC50: Homo sapiens, 96 h. As for the experimental part:
Experimental purpose: The experiment aims to evaluate the inhibitory effects of the test compounds on cell proliferation in the lymphoma cell line SU-DHL-2.
The tumor cell lines were cultured in a 37° C., 5% CO2 incubator under the above culture conditions. Regular passage, and cells in logarithmic growth phase were taken for plating.
• (1) Cells were stained with trypan blue and viable cells were counted. • (2) The cell concentration was adjusted to an appropriate concentration.
• (3) 50 μL of cell suspension per well was added to the culture plate as shown in the figure above. • (4) The culture plate was cultured overnight in a 37° C., 5% CO2 incubator with 100% relative humidity.
Compounds were added using the Echo655 instrument. The volume of compound added was 50 nL, with a final DMSO concentration of 0.1%. The culture plate was centrifuged at 1000 rpm for 1 minute, then incubated for 4 days in an incubator at 37° C., 5% CO2, and with 100% relative humidity.
The following steps were performed according to the instructions of Promega CellTiter-Glo luminescent cell viability assay kit (Promega-G7573). • (1) CellTiter-Glo buffer was melted and brought to room temperature. • (2) CellTiter-Glo substrate was brought to room temperature. • (3) CellTiter-Glo working solution was prepared by adding CellTiter-Glo buffer to a vial of CellTiter-Glo substrate to dissolve the substrate; • (4) The mixture was slowly vortexed and shaken to be fully dissolved. • (5) The cell culture plate was taken out and left for 30 minutes to equilibrate to room temperature. • (6) 25 μL of CellTiter-Glo working solution was added per well (equal to half the volume of cell culture medium per well). The cell plate was wrapped in aluminum foil to be protected from light. • (7) The culture plate was shaken on an orbital shaker for 2 minutes to induce cell lysis. • (8) The culture plate was left at room temperature for 10 minutes to stabilize the luminescent signal. • (9) The luminescent signal was detected on a 2104 EnVision plate reader.
The inhibition rate (IR) of the test compound was calculated using the following formula: IR (%)=(1−(RLU compound/RLU blank control)/(RLU vehicle control−RLU blank control)×100%. The inhibition rates of compounds at different concentrations were calculated in Excel, and then GraphPad Prism software was used to plot inhibition curves and calculate relevant parameters, including minimum inhibition rate, maximum inhibition rate, and IC50.
On the technique in general: ATP-based viability assays read luminescence as a measure of living cells.

Counter-ions that a name gives are not always drawn.

Regarding `CC(C)(O)c1cc2nc(C3CCC(CN4CCN(CC(=O)Nc5cccc6c5ccc5onc(C7CCC(=O)NC7=O)c56)CC4)CC3)sc2cc1NC(=O)c1cccc(C(F)(F)F)n1` (centres unmarked) [Formate of WX017], in test [1], it took 4 nM to reach half-maximal degradation (DC50) and the Dmax was 73.9%.
On to `CC(C)(O)c1cc2nc([C@H]3CC[C@H](CN4CCN(CC(=O)Nc5ccc6c(ccc7onc(C8CCC(=O)NC8=O)c76)c5)CC4)CC3)sc2cc1NC(=O)c1cccc(C(F)(F)F)n1` (some centres unmarked) [Formate of WX020], for which, in test [1], the DC50 was 29.9 nM and the Dmax came to 75.1%.
For `CC(C)(O)c1cc2nc([C@H]3CC[C@H](CN4CCN(CC(=O)Nc5ccc6c(C7CCC(=O)NC7=O)noc6c5)CC4)CC3)sc2cc1NC(=O)c1cccc(C(F)(F)F)n1` (some centres unmarked) [Formate of WX026], in test [2], the IC50 was 0.91 nM and the Maximum inhibition rate was determined as 100.08%. Moreover, in test [1], the DC50 came out at 0.78 nM and the Dmax was 80.3%.
On to `O=C1CCC(c2coc3cc(NC(=O)CN4CCN(C[C@H]5CC[C@H](N6CC(NC(=O)c7coc(-c8ccnc(NCC9CC9)c8)n7)C(C(F)F)N6)CC5)CC4)ccc23)C(=O)N1` (some centres unmarked) [Hydrochloride of WX002], for which, in test [1], the 50% degradation concentration (DC50) was 13.5 nM and the Dmax turned out to be 100%.
As for `O=C1CCC(c2noc3ccc4c(NC(=O)CN5CCN(C[C@H]6CC[C@H](n7cc(NC(=O)c8coc(-c9ccnc(NCC%10CC%10)c9)n8)c(C(F)F)n7)CC6)CC5)cccc4c23)C(=O)N1` (some centres unmarked) [Hydrochloride of WX014], in test [2], the IC50 was 28.7 nM and the Maximum inhibition rate turned out to be 93.55%.
Take `O=C1CCC(c2noc3ccc4c(NC(=O)C(F)(F)C5CCN(CC6CCC(n7cc(NC(=O)c8coc(-c9ccnc(NCC%10CC%10)c9)n8)c(C(F)F)n7)CC6)CC5)cccc4c23)C(=O)N1` (centres unmarked) [Hydrochloride of WX018]: in test [2], the concentration for half-maximal inhibition (IC50) worked out at 11.7 nM and the Maximum inhibition rate worked out at 100.27%. In test [1], the DC50 is 7.91 nM and the Dmax was determined as 119%.
For `O=C1CCC(c2noc3cc(NC(=O)CN4CCN(C[C@H]5CC[C@H](n6cc(NC(=O)c7coc(-c8ccnc(NCC9CC9)c8)n7)c(C(F)F)n6)CC5)CC4)ccc23)C(=O)N1` (some centres unmarked) [Hydrochloride of WX025], in test [1], it took 2.53 nM to reach half-maximal degradation (DC50) and the Dmax is 105%.
In turn, `O=C1CCC(c2noc3c(NC(=O)CN4CCN(C[C@H]5CC[C@H](n6cc(NC(=O)c7coc(-c8ccnc(NCC9CC9)c8)n7)c(C(F)F)n6)CC5)CC4)cccc23)C(=O)N1` (some centres unmarked) [Hydrochloride of WX028] registered a DC50 in test [1] of 2.11 nM.
Take `O=C1CCC(c2coc3ccc4c(NC(=O)CN5CCN(C[C@H]6CC[C@H](n7cc(NC(=O)c8coc(-c9ccnc(NCC%10CC%10)c9)n8)c(C(F)F)n7)CC6)CC5)cccc4c23)C(=O)N1` (some centres unmarked) [Trifluoroacetate of WX011]: in test [2], the IC50 is 25.2 nM and the Maximum inhibition rate was 99.89%. Further, in test [1], half-maximal degradation (DC50) was put at 9.6 nM and the Dmax is 105%.

Broadly, the DC50 is the midpoint of the concentration-degradation curve. Low values mean a more potent degrader, high ones a less potent degrader. Usually IC50 stands for the midpoint of a concentration-inhibition curve. Low values mean greater potency, high ones weaker potency.
